Data: patent US20240360179A1, “STAPLED PEPTIDES AND METHODS THEREOF” (FOG PHARMACEUTICALS, INC., priority 2021, published 2024)

These molecules were tested on COLO320DM cells (assay: COLO320DM proliferation assay (CellTiter-Glo)). Settings: absolute IC50, read-out: COLO320DM Proliferation Abs IC50.
Assay type: cell-based, human
Method: COLO320DM proliferation assay IC50: In some embodiments, inhibition of cell proliferation by provided technologies were assessed using cell lines related to or from certain conditions, disorders or diseases. In some embodiments, cell proliferation was assessed in COLO320DM cells. In some embodiments, assessment was performed using the following procedure: On Day 1, cultured COLO320DM cells in a T75 flask were trypsinized in 3 mL of 0.250% trypsin/EDTA for 5 min and quenched with 10 mL RPMI-1640+4% HI FBS assay media. The cells were spun down at 1200 rpm for 5 min, the cell pellet collected and re-suspended at 5000 cells/mL in assay media. Using a Combi liquid handler, cells were dispensed (50 uL, 250 cells/well) into three 384 well plates. Plates were incubated at 37° C., 5% CO2 for 18-22 h. On day 2, compounds were added. A liquid handling system was used to prepare the compound dilution and dispense compound into assay plates. The compounds were serially diluted 1/2 in 90% DMSO to create a 7 point dose curve. From compound plate, 100 nL of compound were dispensed directly into wells of the assay plates to create a dose curve starting at 20 uM and ending at 313 nM. Assay plates were incubated at 37° C., 5% CO2 for 96 h. On day 6, assay plates were removed from the incubator and allowed to sit at room temperature for 30 min. Using a liquid handler, 20 uL of CellTiter Glo reagent was added to each well. The assay plates were shaken for 2 min and allowed to sit on the bench for 10-15 minutes. The assay plates were read using the CellTiter Glo protocol on a GloMax microplate reader, and the data analyzed using GraphPad Prism. Activities of various agents, including various stapled peptides in Table E2, were confirmed.
In some embodiments, an assessment was performed as follows. On day 0, cells were seeded in cell culture media (RPMI1640, 4% FBS) in a 96-well plate at desired density, typically at 1000 cells/well. On day 1, 10 mM agent stock solution (in DMSO) was first serially diluted into DMSO at 1:2 ratio, followed by diluting with cell culture media at two times of the final concentrations. Finally, agent-containing media were introduced to cell culture wells already having the same volume of cell culture media. Cells were incubated with agents for desired days before lysed for CellTiter-Glo® Luminescent Cell Viability Assay according to the manufacture instruction (Promega, G7570). Luminescent signal was obtained from a microplate reader (GloMax, Promega). Cell viability data was expressed as % relative to DMSO control wells.
Proliferation Assay. In some embodiments, various proliferation assays are utilized to characterize or assess provided technologies. In some embodiments, on day 0, cells were seeded in cell culture media in a 96-well plate at desired density, typically at 1000 cells/well. On day 1, 10 mM compound stock solution was first serially diluted into DMSO, followed by diluting with cell culture media at two times of the final concentrations. Finally, compound-containing media were introduced to cell culture wells already having the same volume of cell culture media. Cells were incubated with compounds for desired days before lysed for CTG according to the manufacture instruction (G7570, Promega). Luminescent signal was obtained from a microplate reader (GloMax, Promega).

**Q.** With CC(=O)N1CCC[C@]12CC=CCCCC1(CCCC=CCCCOC(=O)N3CC[C@@]4(C3)NC(=O)[C@H](CCCCNC(=O)CC[C@@H](C(=O)N[C@@H](C)C(N)=O)NC(=O)[C@H](Cc3csc5ccccc35)NC(=O)[C@H](Cc3ccsc3)NC4=O)NC(=O)[C@H](Cc3ccccc3)NC(=O)[C@H](C)NC(=O)C(C)(C)NC(=O)[C@H](Cc3cccc(C(=O)O)c3)NC(=O)[C@H](CC(=O)O)NC1=O)NC(=O)[C@H](CCCN1CCOCC1)NC(=O)[C@H](CC(=O)O)NC2=O (relative stereo) [I-313, Ac-PL3-Asp-MorphNva-B5-Asp-3COOHF-Aib-Ala-Phe-Lys*3-PyrS2-3Thi-BztA-GlnR*3-Ala-NH2] as the molecule, how does the IC50 read?
**A.** > 20 µM

**Q.** How did the IC50 turn out when CC(=O)N1CCC[C@]12CC=CCCCC1(CCCC=CCCCOC(=O)N3CC[C@@]4(C3)NC(=O)[C@H](CCCCNC(=O)CC[C@@H](C(=O)N[C@@H](C)C(N)=O)NC(=O)[C@H](Cc3csc5ccccc35)NC(=O)[C@H](Cc3ccsc3)NC4=O)NC(=O)[C@H](Cc3ccccc3)NC(=O)[C@H](C)NC(=O)[C@H](Cc3ccccc3)NC(=O)[C@H](Cc3cccc(C(=O)O)c3)NC(=O)[C@H](CC(=O)O)NC1=O)NC(=O)[C@H](CC(C)(C)C)NC(=O)[C@H](CC(=O)O)NC2=O (relative stereo) [I-386, Ac-PL3-Asp-Npg-B5-Asp-3COOHF-Phe-Ala-Phe-Lys*3-PyrS2-3Thi-BztA-GlnR*3-Ala-NH2] was run?
**A.** > 20 µM

**Q.** How did the IC50 turn out when CC(=O)N1CCC[C@]12CC=CCCCC1(CCCC=CCCCOC(=O)N3CC[C@@]4(C3)NC(=O)[C@H](CSCc3cccc(c3)CSC[C@@H](C(=O)N[C@@H](C)C(N)=O)NC(=O)[C@H](Cc3csc5ccccc35)NC(=O)[C@H](Cc3ccccc3C(F)(F)F)NC4=O)NC(=O)[C@H](Cc3ccccc3)NC(=O)[C@H](C)NC(=O)C(C)(C)NC(=O)[C@H](Cc3cccc(C(=O)O)c3)NC(=O)[C@H](CC(=O)O)NC1=O)NC(=O)[C@H](CC(C)(C)C)NC(=O)[C@H](CC(=O)O)NC2=O (stereo partly drawn) [I-375, Ac-PL3-Asp-Npg-B5-Asp-3COOHF-Aib-Ala-Phe-[mXyl]Cys-PyrS2-2F3MeF-BztA-Cys-Ala-NH2] was run?
**A.** ≤ 10 µM

Same assay, conditions: read-out: COLO320DM Proliferation Abs IC50

**Q.** Which IC50 does the source give for “2IAPAc-PL3-Asp-Npg-B5-Asp-3COOHF-Aib-Ala-Phe-Lys*3-PyrS2-3Thi-BztA-GlnR*3-Ala-NH2 [I-1064]” here?
**A.** > 20 µM

**Q.** How did the IC50 turn out when “124TriAc-PL3-Asp-Npg-B5-Asp-3COOHF-Aib-Ala-Phe-Lys*3-PyrS2-3Thi-BztA-GlnR*3-Ala-NH2 [I-1075]” was run?
**A.** > 20 µM

**Q.** CC(=O)N1CCC[C@@]1(C)C(=O)N[C@@H](CC(=O)O)C(=O)N[C@H](C(=O)N[C@]1(C)CCCCCCCCOC(=O)N2CC[C@@]3(C2)NC(=O)[C@H](CCCCNC(=O)CC[C@@H](C(=O)N[C@@H](C)C(N)=O)NC(=O)[C@H](Cc2csc4ccccc24)NC(=O)[C@H](Cc2ccsc2)NC3=O)NC(=O)[C@H](Cc2ccccc2)NC(=O)[C@H](C)NC(=O)C(C)(C)NC(=O)[C@H](Cc2cccc(C(=O)O)c2)NC(=O)[C@H](CC(=O)O)NC1=O)C(C)C (relative stereo) [I-237, Ac-MePro-Asp-Val-R5-Asp-3COOHF-Aib-Ala-Phe-Lys*3-PyrS2-3Thi-BztA-GlnR*3-Ala-NH2] was tested. Which IC50 did it give?
**A.** > 20 µM

**Q.** For CCCC[C@@H]1NC(=O)[C@H](CC(=O)O)NC(=O)[C@]2(CC=CCCCC3(CCCC=CCCCOC(=O)N4CC[C@@]5(C4)NC(=O)[C@H](CCCCNC(=O)CC[C@@H](C(=O)N[C@@H](C)C(N)=O)NC(=O)[C@H](Cc4csc6ccccc46)NC(=O)[C@H](Cc4ccsc4)NC5=O)NC(=O)[C@H](Cc4ccccc4)NC(=O)[C@H](C)NC(=O)C(C)(C)NC(=O)[C@H](Cc4cccc(C(=O)O)c4)NC(=O)[C@H](CC(=O)O)NC3=O)NC1=O)CCCN2C(C)=O (relative stereo) [I-245, Ac-PL3-Asp-nLeu-B5-Asp-3COOHF-Aib-Ala-Phe-Lys*3-PyrS2-3Thi-BztA-GlnR*3-Ala-NH2], which IC50 is on record?
**A.** ≤ 10 µM

**Q.** For CC(=O)N1CCC[C@]12CC=CCCCC1(CCCC=CCCCOC(=O)N3CC[C@@]4(C3)NC(=O)[C@H](CCCCNC(=O)CC[C@@H](C(=O)N[C@@H](C)C(N)=O)NC(=O)[C@H](Cc3csc5ccccc35)NC(=O)[C@H](Cc3ccccc3C)NC4=O)NC(=O)[C@H](Cc3ccccc3)NC(=O)[C@H](C)NC(=O)C(C)(C)NC(=O)[C@H](Cc3cccc(C(=O)O)c3)NC(=O)[C@H](CC(=O)O)NC1=O)NC(=O)[C@H](CC(C)(C)C)NC(=O)[C@H](CC(=O)O)NC2=O (relative stereo) [I-294, Ac-PL3-Asp-Npg-B5-Asp-3COOHF-Aib-Ala-Phe-Lys*3-PyrS2-2MeF-BztA-GlnR*3-Ala-NH2], which IC50 is on record?
**A.** ≤ 10 µM

**Q.** CC(=O)N1CCC[C@]12CC=CCCCC1(CCCC=CCCCOC(=O)N3CC[C@@]4(C3)NC(=O)[C@H](CCCCNC(=O)CC[C@@H](C(=O)N[C@@H](C)C(N)=O)NC(=O)[C@H](Cc3csc5ccccc35)NC(=O)[C@H](Cc3ccccn3)NC4=O)NC(=O)[C@H](Cc3ccccc3)NC(=O)[C@H](C)NC(=O)C(C)(C)NC(=O)[C@H](Cc3cccc(C(=O)O)c3)NC(=O)[C@H](CC(=O)O)NC1=O)NC(=O)[C@H](CC(C)(C)C)NC(=O)[C@H](CC(=O)O)NC2=O (relative stereo) [I-299, Ac-PL3-Asp-Npg-B5-Asp-3COOHF-Aib-Ala-Phe-Lys*3-PyrS2-2PyrA-BztA-GlnR*3-Ala-NH2] was tested. Which IC50 did it give?
**A.** 10 to 20 µM

**Q.** For CC(=O)N1CCC[C@]12CC=CCCCC1(CCCC=CCCCOC(=O)N3CC[C@@]4(C3)NC(=O)[C@H](CCCCNC(=O)CC[C@@H](C(=O)N[C@@H](C)C(N)=O)NC(=O)[C@H](Cc3csc5ccccc35)NC(=O)[C@H](Cc3cccnc3)NC4=O)NC(=O)[C@H](Cc3ccccc3)NC(=O)[C@H](C)NC(=O)C(C)(C)NC(=O)[C@H](Cc3cccc(C(=O)O)c3)NC(=O)[C@H](CC(=O)O)NC1=O)NC(=O)[C@H](CC(C)(C)C)NC(=O)[C@H](CC(=O)O)NC2=O (relative stereo) [I-300, Ac-PL3-Asp-Npg-B5-Asp-3COOHF-Aib-Ala-Phe-Lys*3-PyrS2-3PyrA-BztA-GlnR*3-Ala-NH2], which IC50 is on record?
**A.** > 20 µM

**Q.** Which IC50 does the source give for CC(=O)N1CCC[C@]12CC=CCCCC1(CCCC=CCCCOC(=O)N3CC[C@@]4(C3)NC(=O)[C@H](CCCCNC(=O)CC[C@@H](C(=O)N[C@@H](C)C(N)=O)NC(=O)[C@H](Cc3csc5ccccc35)NC(=O)[C@H](Cc3ccncc3)NC4=O)NC(=O)[C@H](Cc3ccccc3)NC(=O)[C@H](C)NC(=O)C(C)(C)NC(=O)[C@H](Cc3cccc(C(=O)O)c3)NC(=O)[C@H](CC(=O)O)NC1=O)NC(=O)[C@H](CC(C)(C)C)NC(=O)[C@H](CC(=O)O)NC2=O (relative stereo) [I-301, Ac-PL3-Asp-Npg-B5-Asp-3COOHF-Aib-Ala-Phe-Lys*3-PyrS2-4PyrA-BztA-GlnR*3-Ala-NH2] here?
**A.** > 20 µM

**Q.** CC(=O)N1CCC[C@]12CC=CCCCC1(CCCC=CCCCOC(=O)N3CC[C@@]4(C3)NC(=O)[C@H](CCCCNC(=O)CC[C@@H](C(=O)N[C@@H](C)C(N)=O)NC(=O)[C@H](Cc3csc5ccccc35)NC(=O)[C@H](Cc3ccsc3)NC4=O)NC(=O)[C@H](Cc3ccccc3)NC(=O)[C@H](C)NC(=O)C(C)(C)NC(=O)[C@H](Cc3cccc(C(=O)O)c3)NC(=O)[C@H](CC(=O)O)NC1=O)NC(=O)[C@H](C)NC(=O)[C@H](CC(=O)O)NC2=O (relative stereo) [I-304, Ac-PL3-Asp-Ala-B5-Asp-3COOHF-Aib-Ala-Phe-Lys*3-PyrS2-3Thi-BztA-GlnR*3-Ala-NH2] was tested. Which IC50 did it give?
**A.** ≤ 10 µM

**Q.** With CC(=O)N1CCC[C@]12CC=CCCCC1(CCCC=CCCCOC(=O)N3CC[C@@]4(C3)NC(=O)[C@H](CCCCNC(=O)CC[C@@H](C(=O)N[C@@H](C)C(N)=O)NC(=O)[C@H](Cc3csc5ccccc35)NC(=O)[C@H](Cc3ccsc3)NC4=O)NC(=O)[C@H](Cc3ccccc3)NC(=O)[C@H](C)NC(=O)C(C)(C)NC(=O)[C@H](Cc3cccc(C(=O)O)c3)NC(=O)[C@H](CC(=O)O)NC1=O)NC(=O)[C@H](C1CCCCC1)NC(=O)[C@H](CC(=O)O)NC2=O (single isomer, unassigned) [I-253, Ac-PL3-Asp-Chg-B5-Asp-3COOHF-Aib-Ala-Phe-Lys*3-PyrS2-3Thi-BztA-GlnR*3-Ala-NH2] as the molecule, how does the IC50 read?
**A.** ≤ 10 µM

**Q.** Which IC50 does the source give for “Ac-PL3-Asp-Cha-B5-Asp-3COOHF-Ala-Ala-Phe-Lys*3-PyrS2-2ClF-BztA-GlnR*3-NH2 [I-1528]” here?
**A.** ≤ 10 µM

**Q.** “Ac-PL3-Asp-Cha-B5-Asp-3COOHF-CyLeu-Ala-Phe-Lys*3-PyrS2-3Thi-34ClF-GlnR*3-NH2 [I-1047]” was tested. Which IC50 did it give?
**A.** ≤ 10 µM

**Q.** With “Ac-PL3-Asp-Chg-B5-Asp-3COOHF-Aib-Ala-Phe-Lys*3-PyrS2-2ClF-34ClF-GlnR*3-NH2 [I-1505]” as the molecule, how does the IC50 read?
**A.** ≤ 10 µM
